Measurements: US20240300980A1, “HETEROCYCLIC COMPOUNDS AS KRAS INHIBITOR, AND PREPARATION THEREFOR AND USE THEREOF IN TREATMENT” (SHANGHAI KECHOW PHARMA, INC., priority 2021, published 2024)
Where two headings read alike, the source gives them in different places.

System: AGS cells (KRAS^G12D)
Experiment: Detection of cell proliferation in vitro by MTT/MTS method (cell activity experiment)
Type: cell-based
Settings: read-out: AGS IC50
How it was run: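 KRAS G12D AGS cells seeded at 1000 per well, compound added 24 h later, 0.5% final DMSO. Viability read after 3 days of treatment by MTT (solubilised in DMSO) or MTS, 4 h, absorbance 490 nm. IC50 from dose–response curves versus DMSO control.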

[1] = Homo sapiens, AGS, 72 h, AGS cells, MTT/MTS, 3 days of drug treatment
[2] = AGS cells, MTT/MTS, 3 days of drug treatment

Structure (SMILES) | IC50 [1] [nM] | other results
Oc1cc(-c2ncc3c(N4C[C@H]5CC[C@@H](C4)O5)nc(OC[C@@]45CCCN4C[C@H](F)C5)nc3c2F)c2c(F)cccc2c1 [Example 15, 4-(4-((1R,5S)-8-oxa-3-azabicyclo[3.2.1]octan-3-yl)-8-fluoro-2-(((2R,7aS)-2-fluorotetrahydro-1H-pyrrolizin-7a(5H)-yl)methoxy)pyrido[4,3-d]pyrimidin-7-yl)-5-fluoronaphthalen-2-ol] | 320 | –
CCC1CCc2cc(O)cc(-c3ncc4c(NCC5(N(C)C)CCC5)nc(OC[C@@]56CCCN5C[C@H](F)C6)nc4c3F)c21 (stereo partly drawn) [Example 423, 7-(4-(((1-(dimethylamino)cyclobutyl)methyl)amino)-8-fluoro-2-(((2R,7aS)-2-fluorotetrahydro-1H-pyrrolizin-7a(5H)-yl)methoxy)pyrido[4,3-d]pyrimidin-7-yl)-1-ethyl-2,3-dihydro-1H-inden-5-ol] | 55 | –
C#Cc1c(F)ccc2cc(O)cc(C3=C(F)c4nc(OC[C@@]56CCCN5C[C@H](F)C6)nc(N5C[C@H]6CC[C@@H](C5)N6)c4C4=NCCN43)c12 [Example 402, 4-(10-((1R,5S)-3,8-diazabicyclo[3.2.1]octan-3-yl)-6-fluoro-8-(((2R,7aS)-2-fluorotetrahydro-1H-pyrrolizin-7a(5H)-yl)methoxy)-2,3-dihydroimidazo[1′,2′:1,2]pyrido[4,3-d]pyrimidin-5-yl)-5-ethynyl-6-fluoronaphthalen-2-ol] | 56 | –
C#Cc1c(F)ccc2cc(O)cc(-c3ccc4c(N5CCC(N)C5)nc(OC[C@@]56CCCN5C[C@H](F)C6)nc4c3F)c12 (stereo partly drawn) [Example 111, 4-(4-(3-aminopyrrolidin-1-yl)-8-fluoro-2-(((2R,7aS)-2-fluorotetrahydro-1H-pyrrolizin-7a(5H)-yl)methoxy)quinazolin-7-yl)-5-ethynyl-6-fluoronaphthalen-2-ol] | > 2500 | –
C#Cc1c(F)ccc2cc(O)cc(-c3ccc4c(N5CCC(NS(C)(=O)=O)C5)nc(OC[C@@]56CCCN5C[C@H](F)C6)nc4c3F)c12 (stereo partly drawn) [Example 117, N-(1-(7-(8-ethynyl-7-fluoro-3-hydroxynaphthalen-1-yl)-8-fluoro-2-(((2R, 7aS)-2-fluorotetrahydro-1H-pyrrolizin-7a(5H)-yl)methoxy)quinazolin-4-yl)pyrrolidin-3-yl)methanesulfonamide] | > 2500 | –
CCC1CCc2cc(O)cc(-c3ncc4c(N5C[C@H]6CC[C@@H](C5)N6)nc(OC[C@@]56CCCN5C[C@H](F)C6)nc4c3F)c21 (stereo partly drawn) [Example 220, 7-(4-((1R,5S)-3,8-diazabicyclo[3.2.1]octan-3-yl)-8-fluoro-2-(((2R,7aS)-2-fluorotetrahydro-1H-pyrrolizin-7a(5H)-yl)methoxy)pyrido[4,3-d]pyrimidin-7-yl)-1-ethyl-2,3-dihydro-1H-inden-5-ol] | – | IC50 (Homo sapiens, AGS, 72 h): 5 nM
C#Cc1c(F)ccc2cc(O)cc(-c3ncc4c(N5CC6CCC(C5)C6C#N)nc(OC[C@@]56CCCN5C[C@H](F)C6)nc4c3F)c12 (stereo partly drawn) [Example 62, (1R,5S,8S)-3-(7-(8-ethynyl-7-fluoro-3-hydroxynaphthalen-1-yl)-8-fluoro-2-(((2R, 7aS)-2-fluorotetrahydro-1H-pyrrolizin-7a(5H)-yl)methoxy)pyrido[4,3-d]pyrimidin-4-yl)-3-azabicyclo[3.2.1] octane-8-carbonitrile] | > 2500 | –
C#Cc1c(F)ccc2cc(O)cc(-c3ncc4c(N5C[C@H]6CC[C@@H](C5)N6)c(C#N)c(OC[C@@]56CCCN5C[C@H](F)C6)nc4c3F)c12 [Example 191, 4-((1R,5S)-3,8-diazabicyclo[3.2.1]octan-3-yl)-7-(8-ethynyl-7-fluoro-3-hydroxynaphthalen-1-yl)-8-fluoro-2-(((2R,7aS)-2-fluorotetrahydro-1H-pyrrolizin-7a(5H)-yl)methoxy)-1,6-naphthyridine-3-carbonitrile] | 120 | –
CC1(C)CCCc2cc(O)cc(-c3ncc4c(N5C[C@H]6CC[C@@H](C5)N6)nc(OC[C@@]56CCCN5C[C@H](F)C6)nc4c3F)c21 [Example 254, 4-(4-((1R,5S)-3,8-diazabicyclo[3.2.1]octan-3-yl)-8-fluoro-2-(((2R,7aS)-2-fluorotetrahydro-1H-pyrrolizin-7a(5H)-yl)methoxy)pyrido[4,3-d]pyrimidin-7-yl)-5,5-dimethyl-5,6,7,8-tetrahydronaphthalen-2-ol] | 462 | –
C#Cc1c(F)ccc2cc(O)cc(-c3ccc4c(N5C[C@H]6CC[C@@H](C5)[C@@H]6S(=O)(=O)C(F)(F)F)nc(OC[C@@]56CCCN5C[C@H](F)C6)nc4c3F)c12 [Example 132, 5-ethynyl-6-fluoro-4-(8-fluoro-2-(((2R,7aS)-2-fluorotetrahydro-1H-pyrrolizin-7a(5H)-yl)methoxy)-4-((1R,5S, 8R)-8-((trifluoromethyl)sulfonyl)-3-azabicyclo [3.2.1]octan-3-yl)quinazolin-7-yl) naphthalen-2-ol] | – | IC50 [2]: > 2500 nM
C#Cc1cccc2cc(O)cc(-c3ccc4c(N5C[C@H]6CC[C@@H](C5)N6)c(C#N)c(OC[C@@]56CCCN5C[C@H](F)C6)nc4c3)c12 [Example 173, 4-((1R,5S)-3,8-diazabicyclo[3.2.1]octan-3-yl)-7-(8-ethynyl-3-hydroxynaphthalen-1-yl)-2-(((2R,7aS)-2-fluorotetrahydro-1H-pyrrolizin-7a(5H)-yl)methoxy)quinoline-3-carbonitrile] | 1450 | –
CC[C@@H]1CCCc2cc(O)cc(-c3ncc4c(N5CC6CCC(C5)N6)nc(OC[C@@]56CCCN5C[C@H](F)C6)nc4c3F)c21 (single isomer, unassigned) [Example 228, (R)-4-(4-((1R,5S)-3,8-diazabicyclo[3.2.1]octan-3-yl)-8-fluoro-2-(((2R,7aS)-2-fluorotetrahydro-1H-pyrrolizin-7a(5H)-yl)methoxy)pyrido[4,3-d]pyrimidin-7-yl)-5-ethyl-5,6,7,8-tetrahydronaphthalen-2-ol or (S)-4-(4-((1R,5S)-3,8-diazabicyclo[3.2.1]octan-3-yl)-8-fluoro-2-(((2R,7aS)-2-fluorotetrahydro-1H-pyrrolizin-7a(5H)-yl)methoxy)pyrido[4,3-d]pyrimidin-7-yl)-5-ethyl-5,6,7,8-tetrahydronaphthalen-2-ol] | 1090 | –
CC1CCCc2cc(O)cc(-c3ccc4c(N5C[C@H]6CC[C@@H](C5)N6)nc(OC[C@@]56CCCN5C[C@H](F)C6)nc4c3F)c21 (stereo partly drawn) [Example 282, 4-(4-((1R,5S)-3,8-diazabicyclo[3.2.1]octan-3-yl)-8-fluoro-2-(((2R,7aS)-2-fluorotetrahydro-1H-pyrrolizin-7a(5H)-yl)methoxy)quinazolin-7-yl)-5-methyl-5,6,7,8-tetrahydronaphthalen-2-ol] | 15 | –
C#Cc1c(F)ccc2cc(O)cc(-c3ncc4c(N5CCC(NC)C5)nc(OC[C@@]56CCCN5C[C@H](F)C6)nc4c3F)c12 (stereo partly drawn) [Example 58, 5-ethynyl-6-fluoro-4-(8-fluoro-2-(((2R,7aS)-2-fluorotetrahydro-1H-pyrrolizin-7a(5H)-yl)methoxy)-4-(3-(methylamino)pyrrolidin-1-yl)pyrido[4,3-d]pyrimidin-7-yl)naphthalen-2-ol] | > 2500 | –
CCC1CCc2cc(O)cc(-c3ccc4c(N5C[C@H]6CC[C@@H](C5)N6)nc(OC[C@@]56CCCN5C[C@H](F)C6)nc4c3F)c21 (single isomer, unassigned) [Example 285] | – | IC50 [2]: 7 nM
C#Cc1c(F)ccc2cc(O)cc(-c3ccc4c(N5CC(C)(N)C5)nc(OC[C@@]56CCCN5C[C@H](F)C6)nc4c3F)c12 [Example 217, 4-(4-(3-amino-3-methylazetidin-1-yl)-8-fluoro-2-(((2R,7aS)-2-fluorotetrahydro-1H-pyrrolizin-7a(5H)-yl)methoxy)quinazolin-7-yl)-5-ethynyl-6-fluoronaphthalen-2-ol] | 835 | –
O=C1CCCc2cc(O)cc(-c3ncc4c(N5C[C@H]6CC[C@@H](C5)N6)nc(OC[C@@]56CCCN5C[C@H](F)C6)nc4c3F)c21 [Example 249, 8-(4-((1R,5S)-3,8-diazabicyclo[3.2.1]octan-3-yl)-8-fluoro-2-(((2R,7aS)-2-fluorotetrahydro-1H-pyrrolizin-7a(5H)-yl)methoxy)pyrido[4,3-d]pyrimidin-7-yl)-6-hydroxy-3,4-dihydronaphthalen-1(2H)-one] | > 2500 | –
CCc1cccc2cc(O)cc(-c3ccc4c(N5C[C@H]6CC[C@@H](C5)N6)c(C#N)c(OC[C@@]56CCCN5C[C@H](F)C6)nc4c3)c12 [Example 174, 4-((1R,5S)-3,8-diazabicyclo[3.2.1]octan-3-yl)-7-(8-ethyl-3-hydroxynaphthalen-1-yl)-2-(((2R,7aS)-2-fluorotetrahydro-1H-pyrrolizin-7a(5H)-yl)methoxy)quinoline-3-carbonitrile] | 1460 | –
Oc1cc2c(c(-c3ncc4c(N5C[C@H]6CC[C@@H](C5)N6)nc(OC[C@@]56CCCN5C[C@H](F)C6)nc4c3F)c1)CC1(CC1)C2 [Example 300, 4′-(4-((1R,5S)-3,8-diazabicyclo[3.2.1]octan-3-yl)-8-fluoro-2-(((2R,7aS)-2-fluorotetrahydro-1H-pyrrolizin-7a(5H)-yl)methoxy)pyrido[4,3-d]pyrimidin-7-yl)-1′,3′-dihydrospiro[cyclopropane-1,2′-inden]-6′-ol] | 177 | –
CCC1CCc2cc(O)cc(-c3ccc4c(N5C[C@H]6CC[C@@H](C5)N6)nc(OC[C@@]56CCCN5C[C@H](F)C6)nc4c3F)c21 (single isomer, unassigned) [Example 284] | – | IC50 [2]: 2200 nM
Oc1cc2c(c(-c3ncc4c(N5C[C@H]6CC[C@@H](C5)N6)nc(OC[C@@]56CCCN5C[C@H](F)C6)nc4c3F)c1)C(CF)CCC2 (stereo partly drawn) [Example 262, 4-(4-((1R,5S)-3,8-diazabicyclo[3.2.1]octan-3-yl)-8-fluoro-2-(((2R,7aS)-2-fluorotetrahydro-1H-pyrrolizin-7a(5H)-yl)methoxy)pyrido[4,3-d]pyrimidin-7-yl)-5-(fluoromethyl)-5,6,7,8-tetrahydronaphthalen-2-ol] | 305 | –
